The data set is described as follows: Solubility in orally acceptable oils and aqueous systems. The following applies: in conventional, orally acceptable oils, such as safflower or sesame seed oils, and in aqueous systems. It is filed as physicochemical.

Our source for the solubility values is patent publication US6352718B1, “Vasopressin antagonist formulation and process” (American Cyanamid Company, priority 1999, dated 2002).

Molecules are shown by their SMILES.

On to `Cc1ccc(F)cc1C(=O)Nc1ccc(C(=O)N2Cc3cccn3Cc3ccccc32)c(Cl)c1` [VPA-985, N-[4-(5H-pyrrolo[2,1-c][1,4]benzodiazepin-10(11H)ylcarbonyl)-3-chlorophenyl]-5-fluoro-2-methylbenzamide], for which the solubility result is “highly insoluble”.
